Reference: patent publication US6737247B2, “Imaging of enzymatic activity” (The General Hospital Corporation, priority 2000, dated 2004)

What was measured:
[1] = test system: peroxidase; test: H1 NMR relaxometry / relaxivity enhancement after peroxidase treatment; type: biochemical; settings: equimolar amount added to the peroxidase reaction
[2] = test system: peroxidase; test: Kinetics of peroxidase-mediated oxidation in excess hydrogen peroxide, spectrophotometry at 400 nm; type: biochemical; settings: absorbance at 400 nm
Procedure: Substrates I and II at concentrations of 10-50 μM were treated by peroxidase (0.1-100 nM) and an excess of hydrogen peroxide (3.5 mM) in 10 mM phosphate-buffered saline (PBS) or 0.05 M sodium phosphate pH 6.8. In some experiments, a peroxide-generating system (5 mM glucose, glucose oxidase and lactoperoxidase) was used. In inhibition studies, 2 mM Gd-free substrate, tyramine, dopamine, or methyldopamine were added as competitive inhibitors. The reaction was monitored by spectrophotometry at 400 nm and by NMR spectrometry (Minispec 120 Bruker). Magnetic resonance imaging was performed using a 1.5 T Signa GE system and surface or knee coils. Inversion-recovery pulse sequences (TE 11 ms/TR 1000 ms/TI 50-600 ms) were used for T1 measurements. Spin-echo sequence (TE 13 ms/TR 400 ms/2 NEX, Matrix 256×160) was optimal for magnetic resonance imaging of signal amplification. Magnetic resonance signal intensity was measured using region-of-interest approach and 16-bit TIFF images. […]
Kinetics of oxidation of tyraminyl-DOTA(Gd), I, or hydroxytyraminyl-DOTA(Gd), II, in the presence of the excess of hydrogen peroxide was studied using spectrophotometry. The increase in absorbance at 400 nm in the case of both gadolinium-labeled substrates was rapid, indicating efficient oxidation of both substrates, and gave similar pseudo-first order kinetic constants: k1app=0.0125 s^−1 (I) and 0.013 s^−1 (II).

[3] = test system: peroxidase; test: H1 NMR relaxometry / relaxivity enhancement after peroxidase treatment; type: biochemical; settings: for r1, peroxidase: after peroxidase; for r1, control: no peroxidase
Procedure: Substrates I and II at concentrations of 10-50 μM were treated by peroxidase (0.1-100 nM) and an excess of hydrogen peroxide (3.5 mM) in 10 mM phosphate-buffered saline (PBS) or 0.05 M sodium phosphate pH 6.8. In some experiments, a peroxide-generating system (5 mM glucose, glucose oxidase and lactoperoxidase) was used. In inhibition studies, 2 mM Gd-free substrate, tyramine, dopamine, or methyldopamine were added as competitive inhibitors. The reaction was monitored by spectrophotometry at 400 nm and by NMR spectrometry (Minispec 120 Bruker). Magnetic resonance imaging was performed using a 1.5 T Signa GE system and surface or knee coils. Inversion-recovery pulse sequences (TE 11 ms/TR 1000 ms/TI 50-600 ms) were used for T1 measurements. […] Magnetic resonance signal intensity was measured using region-of-interest approach and 16-bit TIFF images. Mean pixel values were compared using a Student t-test.

[4] = Chelex-100 resin treatment to test dissociation of gadolinium from the DOTA(Gd) complex; type: physicochemical; settings: compared to control with no peroxidase added
From the text: By plotting relaxation data against the concentration of gadolinium, a raise of 1/T1 and I/T2 of 2 fold (at 0.47 T) and 2.7 fold (1.5 T) in the case of substrate I, and 3.5 (at 0.47 T) in the case of substrate II has been measured (Table 1). […] To find out whether the increase in relaxivity is a result of dissociation of gadolinium cation from a DOTA(Gd) complex, we treated Tyr-DOTA(Gd) or Dopamine-DOTA(Gd) with Chelex-100 resin and compared it to the control with no peroxidase added. No difference in T1 relaxation time of substrate solutions before and after the treatment was observed.

[5] = test system: digoxigenin-labeled Fab2' fragment of monoclonal antibody; test: MRAMP ELISA-like assay with adsorbed DIG-labeled Fab2' fragment and anti-digoxigenin-peroxidase conjugate; settings: 0.4 mM substrate, 3.5 mM hydrogen peroxide, 96-well plate
Procedure: Fab2′ fragment of H18/7 monoclonal anti-human E selectin antibody was prepared using pepsin digestion, and then purified. Labeling of Fab2′-fragment with digoxigenin (DIG) hydroxysuccinimide ester (HSE) (Roche Molecular Diagnostics) was carried out according to the vendor's instructions. One ng to 1000 ng of DIG-labeled antibody was serially diluted with 0.01 M sodium carbonate (pH 9) in a 96-well plate (Nunc) and adsorbed at 37° C. overnight. Wells were washed with PBS containing 0.1% Tween 20 (PBST) blocked with BSA solution, and anti-DIG antibody-peroxidase conjugate (Roche, diluted 1:1000) was incubated in wells in PBS-B for 1 hour. Washed wells were filled with 200 μl of 0.4 mM substrate I or II and hydrogen peroxide (3.5 mM) and incubated for 30 min before imaging. Cells (2 million/sample) were treated sequentially with IL-1β, anti-E selectin DIG-labeled Fab2′-fragment, and anti-DIG antibody-peroxidase. Cell suspensions were prepared in PBS and substrates were used as above. Cells were pelleted in Eppendorf tubes (0.5 ml), and then imaged as described above. […] Magnetic resonance signal intensity was quantified as described above and compared to that of aqueous Gd solutions.
In the next series of experiments, we determined whether MRAMP could be utilized to detect a model ligand in an ELISA-like assay. […]

Compound	influence of added equimolar competitor on gadolinium relaxivity [1]	pseudo-first order kinetic constant k1app [2] [s⁻¹]	raise of 1/T1 and 1/T2 after addition of the enzyme ([3]; 0.47 T) [fold]	r1, peroxidase ([3]; 0.47 T (20 MHz)) [mM⁻¹ s⁻¹]	r1, control ([3]; 0.47 T (20 MHz)) [mM⁻¹ s⁻¹]	r1, peroxidase ([3]; 1.5 T (63 MHz)) [mM⁻¹ s⁻¹]	r1, control ([3]; 1.5 T (63 MHz)) [mM⁻¹ s⁻¹]	difference in T1 relaxation time of substrate solutions before and after Chelex-100 treatment [4]	other results
NCCc1ccc(O)c(O)c1 [dopamine]	did not influence gadolinium relaxivity	–	–	–	–	–	–	–	–
NCCc1ccc(O)cc1 [tyramine]	did not influence gadolinium relaxivity	–	–	–	–	–	–	–	–
N[C@@H](Cc1ccc(O)cc1)C(=O)O [tyrosine]	did not influence gadolinium relaxivity	–	–	–	–	–	–	–	–
hydroxytyraminyl-DOTA(Gd) [Substrate II]	–	0.013	3.5	11.50	3.75	14.1	5.2	No difference	antibody fragment detected at threshold (sensitivity of MRAMP assay) [5]: 1 ng
methyl-dopamine	did not influence gadolinium relaxivity	–	–	–	–	–	–	–	–
tyramine-[1,4,7,10-tetraazacyclododecane-N,N′,N″,N′″-tetraacetic acid, gadolinium salt] [Substrate I]	–	0.0125	2	7.10	3.30	10.1	4.5	No difference	raise of 1/T1 and 1/T2 after addition of the enzyme ([3]; 1.5 T): 2.7 fold
